Assays:
[1] = tested on: mouse proximal tubule cells; assay: Cell damage caused by cisplatin (number of adhesion cells, microscopy); assay type: cell-based
Description: To confirm if an SIRT2 inhibitor has an effect of inhibiting cell damage caused by cisplatin, the effects of AGK2 and AK-1, which are SIRT2 inhibitors, when the mouse proximal tubule cells were treated with cisplatin were examined. Specifically, mouse proximal tubule cells were treated with AGK2 (10 μM) and AK-1 (10 μM), which are SIRT2 inhibitors, 30 minutes prior to being treated with cisplatin (20 μg/ml) for 48 hours, and the cells were visualized by a Zeiss Z1 microscope.

[2] = tested on: mouse proximal tubule cells; assay: Cell proliferation test (XTT); assay type: cell-based; settings: 24 hours, 1% FBS
Description: Specifically, the cell proliferation test was performed by treating mouse proximal tubule cells with trypsin, the cells were put in a 96-well plate at 1×10^3 cells for each well, cultured for 24 hours at 37° C., the culture medium was removed, and each of AGK2, AK-1, cisplatin, cisplatin+AGK2, and cisplatin+AK-1 was treated with a culture medium containing 1% FBS. After culturing for 24 hours at 37° C., the degree of cell proliferation was measured using a cell proliferation kit (Cell proliferation Kit II, XTT, Roche, Mannheim, Germany). As cells proliferate, the amount of color-developing material of mitochondria within cells increases, and thus the absorbance increases. Therefore, the proliferation of the mouse proximal tubule cells was determined based on the absorbance, and the results are provided in FIG. 34.

CXCL2 = CXCL2 mRNA expression by qRT-PCR in LPS-treated mouse proximal tubule cells; assay type: cell-based; settings: AK-1 10 μM 30 minutes prior to 1-hour LPS (10 μg/ml); compared with LPS-increased expression
Description: (§1) Mouse proximal tubule cells, which were donated by Dr Lloyd G. Cantley (Yale University School of Medicine, New Haven, Conn., US), were prepared by culturing, in an α-MEM medium containing added fetal bovine serum at 10% (vol/vol), under conditions including a humidified atmospheric condition of 5% CO2 and 95% air and a temperature condition of 37° C.
(§2) To remove the SIRT2 gene from the cells, siRNA (100 pmol, Dharmacon ON-TARGETplus SMARTpool, Dharmacon Inc., CO, US) and 10 μl Lipofectamine® 2000 (Invitrogen™, Carlsbad, Calif., US) were diluted in an Opti-MEM medium for the cell treatment, and, 7 hours later, the cells were transferred into a cell culture medium for cell culture. 2 days after the initiation of the cell culture, the cells were collected and a decrease in an SIRT2 protein was observed therefrom.
1, 3, and 6 hours after the treatment with the LPS and the CB following the SIRT2 siRNA treatment, the cell culture medium, RNA, and proteins were collected to perform quantitative real-time PCR (qRT-PCR) and an enzyme linked immunosorbent assay. […]
(§3) Mouse proximal tubule cells were treated with AK-1 (10 μM), which is an SIRT2 inhibitor, 30 minutes prior to a 1-hour treatment with an LPS (10 μg/ml). The cells were collected and CXCL2 and CCL2 mRNA expression levels thereof were determined through qRT-PCR.

CCL2 = CCL2 mRNA expression by qRT-PCR in LPS-treated mouse proximal tubule cells; assay type: cell-based; settings: AK-1 10 μM 30 minutes prior to 1-hour LPS (10 μg/ml); compared with LPS-increased expression
Description: as §1, §2
1, 3, and 6 hours after the treatment with the LPS and the CB following the SIRT2 siRNA treatment, the cell culture medium, RNA, and proteins were collected to perform quantitative real-time PCR (qRT-PCR) and an enzyme linked immunosorbent assay.
The CCL2 expression pattern was observed by the method of Example 4.
as §3

[3] = Survival rate after cisplatin administration; assay type: in vivo, mouse; settings: control group (SIRT2+/+) administered cisplatin
Text: Based on the result, it can be seen that the knocking out an SIRT2 gene inhibits kidney injuries caused by cisplatin.

caspase-3 = assay: Western blot of caspase-3 in kidney tissues after cisplatin; assay type: in vivo, mouse; settings: kidney tissues of WT mice administered cisplatin
Description: (§4) Generally, kidney injuries caused by cisplatin are affected by apoptosis. To determine the effect of SIRT2 gene knockout on controlling apoptosis caused by cisplatin, the acetylation of caspase-3 and p53 was observed through western blotting.
(§5) Kidney tissues were obtained by the method of the above Example 9-2 and then were homogenized to extract proteins therefrom, and the caspase-3 and acetyl p53 protein expression patterns were determined using caspase-3 and acetyl p53 antibodies (Cell Signaling Technology, Danvers, Mass. US). The same blots were peeled off to determine the exact amount of proteins using actin (Sigma-Aldrich Co. LLC., St Louis, Mo., US) and p53 (Cell Signaling Technology, Inc.).

acetyl p53 = assay: Western blot of acetyl p53 in kidney tissues after cisplatin; assay type: in vivo; settings: kidney of mouse having SIRT2 treated with cisplatin
Description: as §4, §5

ICAM-1 = assay: Western blot of ICAM-1 in kidney tissues after cisplatin; assay type: in vivo, mouse; settings: kidney tissues of WT mice administered cisplatin
Description: (§6) An investigation was performed to see if the expression of ICAM-1 and VCAM-1 genes, which are molecules related to inflammatory response, in an experimental group administered cisplatin is regulated by an SIRT2 gene. Western blotting was performed by the method of the above Example 11, using ICAM-1 (Santa Cruz Biotechnology, Santa Cruz, Calif., US) and VCAM-1 (Santa Cruz Biotechnology, Santa Cruz, Calif., US) antibodies.

VCAM-1 = assay: Western blot of VCAM-1 in kidney tissues after cisplatin; assay type: in vivo, mouse; settings: kidney tissues of WT mice administered cisplatin
Description: as §6

[4] = SIRT2 inhibitor 10 μM 30 minutes prior to cisplatin 20 μg/ml for 48 hours, compared with cisplatin alone
[5] = used together with cisplatin, compared with cisplatin alone

O=C(Nc1cccc2ncccc12)/C(O)=C/c1ccc(-c2cc(Cl)ccc2Cl)o1 [AGK2]
number of adhesion cells [1, 4]: significantly increased | cell proliferation (XTT absorbance) [2, 5]: significantly increased

O=C(Nc1cccc([N+](=O)[O-])c1)c1cccc(S(=O)(=O)N2CCCCCC2)c1 [AK-1]
CXCL2 mRNA expression level (CXCL2): decrease | CCL2 mRNA expression level (CCL2): decrease | number of adhesion cells [1, 4]: significantly increased | cell proliferation (XTT absorbance) [2, 5]: significantly increased

N.N.[Cl][Pt][Cl] [cisplatin, cis-diammine-dichloroplatinum [II]]
number of adhesion cells ([1]; cisplatin 20 μg/ml for 48 hours alone): decreased | cell proliferation (XTT absorbance) ([2]; cisplatin alone): decreased | survival [3]: all mice died in 6 days | cleaved caspase-3 expression (caspase-3): increased | p53 acetylation (acetyl p53): increased | ICAM-1 expression (ICAM-1): increased | VCAM-1 expression (VCAM-1): increased
